Measured values as given in US10519211B2, “Compounds as peptidic GLP1/glucagon/GIP receptor agonists” (SANOFI, priority 2016, dated 2019).
Numbered stars: 1 amine (or outer) side, 2 acyl side, 3 side chain; on linkers, the order of the positions; unused ones are H or OH. Square brackets hold non-standard residues; d marks the D form. Side chains are listed from the residue outwards. Peptide text beside a SMILES is read from it. * marks the point of attachment. γGlu = O=C(O)[C@H](CCC(=O)[*:2])N[*:1]; Palmitoyl = CCCCCCCCCCCCCCCC(=O)*; Aib = CC(C)(N)C(=O)O

What was measured:
[1] = tested on: female diet-induced obese (DIO) C57BL/6NHsd mice; test: Acute and chronic effects after subcutaneous treatment in female diet-induced obese (DIO) mice; type: in vivo, mouse; settings: for Body mass compared to the DIO-Vehicle group / Whole body fat mass compared to the DIO-Vehicle group / Plasma insulin concentrations compared to DIO vehicle / Plasma total cholesterol concentrations compared to DIO vehicle / Liver mass on day 28 compared to DIO animals treated with vehicle / Plasma alanine aminotransferase concentration on day 28 compared to DIO vehicle: 30 μg/kg s.c. twice daily; for Body mass compared to the DIO-Vehicle group / Whole body fat mass compared to the DIO-Vehicle group / Body mass change: 28 days; for Body mass compared to the DIO-Vehicle group / Whole body fat mass compared to the DIO-Vehicle group / Plasma insulin concentrations compared to DIO vehicle / Plasma total cholesterol concentrations compared to DIO vehicle / Liver mass on day 28 compared to DIO animals treated with vehicle / Plasma alanine aminotransferase concentration on day 28 compared to DIO vehicle / 24 hour blood glucose profile following first treatment: in words; for Plasma insulin concentrations compared to DIO vehicle / Plasma total cholesterol concentrations compared to DIO vehicle: day 28; for 24 hour blood glucose profile following first treatment: 30 μg/kg s.c., day 1, fed DIO mice, vs DIO control; for Body mass change / Whole body fat mass change / Terminal liver mass (g) / Terminal plasma alanine aminotransferase (U/L) / Terminal plasma insulin (U/L) / Terminal plasma total cholesterol (mmol/L): Table 9, twice-daily 30 μg/kg s.c.; for Body mass change: mean ± SEM; for Whole body fat mass change: QNMR predose vs day 26, mean ± SEM; for Terminal liver mass (g) / Terminal plasma alanine aminotransferase (U/L) / Terminal plasma insulin (U/L) / Terminal plasma total cholesterol (mmol/L): day 28, mean ± SEM
Description: Female C57BL/6NHsd mice were ordered group housed from Envigo RMS Inc., shipped group housed and remained group housed with shipped cage mates in shoebox caging with wood chip bedding until day 38 of the predose phase. At the study start mice were between 25-26 weeks old.
Mice were housed under vivarium conditions that included a 12 h light/dark cycle (light phase 04:00 AM-4:00 PM), room temperatures between 23-26° C. and a relative humidity between 30-70%. All animals had free access to water and a high fat diet (TD97366) for 16 weeks prior to pharmacological intervention (dosing phase). Feed was replaced with fresh feed weekly until and for the last time on day 38 of the predose phase. During the subsequent dosing phase, approximately 50% of the remaining feed were removed, replaced with fresh feed, and pellets were mixed evenly once per week.
On predose day 38, obese DIO mice were assigned to treatment groups (n=8) to match mean body masses between all DIO groups. An age-matched group with ad libitum access to a rodent maintenance diet (Teklad Global Diets Rodent 2014, pelleted) was included in the study as a lean control group. In the predosing phase from day 32 through 38, all study animals were treated with vehicle (Phosphate Buffered Saline, PBS, Gibco, without CaCl2 and MgCl2) once daily (s.c. approximately 0.2 mL/mouse).
On day 37 of the predose phase, the test article was diluted with PBS to a concentration of 100 μg/mL and aliquots of this stock solution were stored at approximately ≤−60° C. Stock aliquots were thawed for weekly use and thereafter stored in a refrigerator at approximately 4° C. The injected test article solution was prepared fresh once on each dosing day by diluting stock solution with PBS to achieve the desired concentration.
Mice were treated twice daily with a s.c. injection of PBS-vehicle or the test article for 28 days. The morning dosing was initiated and completed between 06:00 and 07:30 AM and the afternoon dosing between 2:00 and 3:30 PM. On day 28 of the dosing phase only the morning dose was administered. The applied volume was 5 ml/kg and the dose was adjusted to the most recent body mass recording of each individual.
Animals had unlimited access to water and feed during the experiment. On day 1 of the dosing phase approximately 5 μL of blood were collected via tail clips at hour 0, prior to the first s.c. dose of PBS-vehicle or test-article as well as 1, 2, 3, 4, 6, and 24 hours post-dose. Animals received the second s.c. dose of PBS-vehicle or test-article 8 hours after the first dose. The 24 hour blood collection of the blood glucose profile was performed prior to dosing on day 2. Glucose measurements were performed in whole blood and in duplicate or triplicate using Aviva glucometers.
Body mass was measured daily approximately between 06:00-07:30 AM from day 32 through 38 of the predosing phase and throughout the 28 days of the dosing phase. During the dosing phase mice were treated twice daily with either a s.c. injection of PBS-vehicle or test article.
To determine whole body fat mass Quantitative Nuclear Magnetic Resonance (QNMR) measurements were performed on predosing day 37 and on day 26 of the dosing phase. During the dosing phase mice were treated twice daily with either a s.c. injection of PBS-vehicle or test article.
On day 28 blood was collected prior to any other inlife activities for determination of plasma insulin concentrations. Then the morning dose was administered and necropsy was performed 4 hours post-dose. For this purpose animals were anesthetized with isoflurane and blood was collected by orbital bleeding.
On day 28 and 4 hours after the morning dose, blood was collected from mice under isoflurane anesthesia as described above. Then mice were killed and livers were collected and weighed.
Data are depicted as means±SEM. […] A One-Way ANOVA and Tukey Test were used for pairwise multiple comparisons of all groups (n=8/group, deviations from group size are indicated). […]

[2] = Dynamic light scattering (DLS), hydrodynamic radius as surrogate for interaction parameter kD; type: physicochemical; settings: for Delta Rh [nm] = Rh5 − Rh1: DLS buffer system A pH 4.5; for Rh1 [nm] c= 1 mg/ml / Rh5 [nm] c = 5 mg/ml: hydrodynamic radius, DLS buffer system A pH 4.5, DLS method C, 25° C.
How it was run: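 Rh and diffusion constant measured in triplicate at 1 and 5 mg/ml peptide in 25 mM acetate pH4.5 with methionine, m-cresol and glycerol, at 25°C, 830 nm, 158°. Rh5<Rh1 or D5>D1 taken as kD>0, indicating repulsive interactions.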

| SMILES | Body mass compared to the DIO-Vehicle group [1] | Whole body fat mass compared to the DIO-Vehicle group [1] | Plasma insulin concentrations compared to DIO vehicle [1] | Plasma total cholesterol concentrations compared to DIO vehicle [1] | Liver mass on day 28 compared to DIO animals treated with vehicle [1] | Plasma alanine aminotransferase concentration on day 28 compared to DIO vehicle [1] | 24 hour blood glucose profile following first treatment [1] | Body mass change [1] [g] | Whole body fat mass change [1] [g] | Terminal liver mass (g) [1] | Terminal plasma alanine aminotransferase (U/L) [1] | Terminal plasma insulin (U/L) [1] | Terminal plasma total cholesterol (mmol/L) [1] | Delta Rh [nm] = Rh5 − Rh1 [2] [nm] | Rh1 [nm] c= 1 mg/ml [2] [nm] | Rh5 [nm] c = 5 mg/ml [2] [nm] |
| --- | --- | --- | --- | --- | --- | --- | --- | --- | --- | --- | --- | --- | --- | --- | --- | --- |
| CCCCCCCCCCCCCCCC(=O)N[C@@H](CCC(=O)N[C@@H](CCC(=O)NCCCC[C@H](NC(=O)[C@H](CC(C)C)NC(=O)[C@H](CCCCN)NC(=O)[C@H](CO)NC(=O)[C@H](CC(C)C)NC(=O)[C@H](CC(=O)O)NC(=O)[C@H](CO)NC(=O)[C@@H](NC(=O)[C@H](Cc1ccccc1)NC(=O)[C@@H](NC(=O)CNC(=O)[C@H](CCC(N)=O)NC(=O)C(C)(C)NC(=O)[C@@H](N)Cc1c[nH]cn1)[C@@H](C)O)[C@@H](C)O)C(=O)N[C@@H](CCC(=O)O)C(=O)N[C@@H](CCCCN)C(=O)N[C@@H](CCC(N)=O)C(=O)N[C@@H](CCCNC(=N)N)C(=O)N[C@@H](CCC(N)=O)C(=O)NC(C)(C)C(=O)N[C@@H](CCC(=O)O)C(=O)N[C@@H](Cc1ccccc1)C(=O)N[C@H](C(=O)N[C@@H](CCC(=O)O)C(=O)N[C@@H](Cc1c[nH]c2ccccc12)C(=O)N[C@@H](CC(C)C)C(=O)N[C@@H](CCCCN)C(=O)N[C@@H](C)C(=O)NCC(=O)NCC(=O)N1CCC[C@H]1C(=O)N1CCC[C@H]1C(=O)N[C@@H](CO)C(=O)NC(C)(C)C(=O)N[C@@H](CCCCN)C(=O)N1CCC[C@H]1C(=O)N1CCC[C@H]1C(=O)N1CCC[C@H]1C(=O)N[C@@H](CCCCN)C(N)=O)[C@@H](C)CC)C(=O)O)C(=O)O [SEQ ID NO: 6, H-Aib-Q-G-T-F-T-S-D-L-S-K-L-K[gGlu-gGlu-Palm]-E-K-Q-R-Q-Aib-E-F-I-E-W-L-K-A-G-G-P-P-S-Aib-K-P-P-P-K-NH2] | statistically significant decrease in body mass | statistically significantly reduction in whole body fat mass | statistically significant reduction in plasma insulin concentrations | statistically significant reduction in plasma total cholesterol concentrations | statistically significantly lower liver mass | statistically significantly lower plasma alanine aminotransferase concentration | decrease in blood glucose concentrations below concentrations observed in DIO control mice | -5.36 ± 0.36 | -4.33 ± 0.42 | +1.16 ± 0.04 g | +62.25 ± 9.79 U/L | +31.07 ± 5.26 U/L | +5.11 ± 0.12 mmol/L | −0.5 | 2.3 | 1.8 |
| CCCCCCCCCCCCCCCC(=O)N[C@@H](CCC(=O)N[C@@H](CCC(=O)NCCCC[C@H](NC(=O)[C@H](CC(C)C)NC(=O)[C@H](CCCCN)NC(=O)[C@H](CO)NC(=O)[C@H](CC(C)C)NC(=O)[C@H](CC(=O)O)NC(=O)[C@H](CO)NC(=O)[C@@H](NC(=O)[C@H](Cc1ccccc1)NC(=O)[C@@H](NC(=O)CNC(=O)[C@H](CCC(N)=O)NC(=O)C(C)(C)NC(=O)[C@@H](N)Cc1c[nH]cn1)[C@@H](C)O)[C@@H](C)O)C(=O)N[C@@H](CCC(=O)O)C(=O)N[C@@H](CCCCN)C(=O)N[C@@H](CCC(N)=O)C(=O)N[C@@H](CCCNC(=N)N)C(=O)N[C@@H](CCC(N)=O)C(=O)NC(C)(C)C(=O)N[C@@H](CCC(=O)O)C(=O)N[C@@H](Cc1ccccc1)C(=O)N[C@H](C(=O)N[C@@H](CCC(=O)O)C(=O)N[C@@H](Cc1c[nH]c2ccccc12)C(=O)N[C@@H](CC(C)C)C(=O)N[C@@H](CCCCN)C(=O)N[C@@H](C)C(=O)N[C@H](C)C(=O)NCC(=O)N1CCC[C@H]1C(=O)N1CCC[C@H]1C(=O)N[C@@H](CO)C(=O)NC(C)(C)C(=O)N[C@@H](CCCCN)C(=O)N1CCC[C@H]1C(=O)N1CCC[C@H]1C(=O)N1CCC[C@H]1C(=O)N[C@@H](CCCCN)C(N)=O)[C@@H](C)CC)C(=O)O)C(=O)O [SEQ ID NO: 7, H-Aib-Q-G-T-F-T-S-D-L-S-K-L-K[gGlu-gGlu-Palm]-E-K-Q-R-Q-Aib-E-F-I-E-W-L-K-A-dAla-G-P-P-S-Aib-K-P-P-P-K-NH2] (H-H[Aib]QGTFTSDLSKLK([γGlu-γGlu-Palmitoyl])EKQRQ[Aib]EFIEWLKA[dA]GPPS[Aib]KPPPK-NH2) | statistically significant decrease in body mass | statistically significantly reduction in whole body fat mass | statistically significant reduction in plasma insulin concentrations | statistically significant reduction in plasma total cholesterol concentrations | statistically significantly lower liver mass | statistically significantly lower plasma alanine aminotransferase concentration | decrease in blood glucose concentrations below concentrations observed in DIO control mice | -5.58 ± 0.60 | -4.46 ± 0.50 | +1.14 ± 0.04 g | +47.63 ± 6.76 U/L | +58.04 ± 6.33 U/L | +4.19 ± 0.15 mmol/L | −0.3 | 2.8 | 2.4 |
